Assay results as given in US6673812B1, “Preventives/remedies for glaucoma” (Senju Pharmaceutical Co., Ltd., priority 1998, dated 2004).

Tested on: Japanese white rabbits
Assay: Effect on normal intraocular pressure of white rabbits
Type: in vivo, rabbit
Conditions: 20 μl eye drop, 0.1% or 0.03%
Source text: In this experiment, 0.1% eye drop and 0.03% eye drop containing Compound A (each prepared in Example 2 and Example 3), 0.03% eye drop containing Compound B (prepared in Example 4), 0.1% eye drop and 0.03% eye drop containing Compound C (each prepared in Example 5 and Example 6) and 0.03% eye drop containing Compound D (prepared in Example 7) were used.
Japanese white rabbits (body weight about 2 kg) purchased from Japan Laboratory Animals, INC. were used. These animals were bred in a breeding chamber set to temperature 23±3° C., humidity 55±10% and fed on limited amount of 100 g a day of a solid feed (Labo R Stock, Nihon-Nosan Kogyo K.K.). They were allowed free access to tap water. The rabbits were placed in a holding box for 5 hr a day for acclimation from 2 days prior to the test. […] After measurement of the initial value of the intraocular pressure, various eye drops (20 μl) were instilled into one eye, and a base, which was one of various eye drops except the test drug, was instilled into the other eye in the same manner and taken as the control eye.
The intraocular pressure was measured with time at 30, 60, 90, 120, 150 and 180 min after instillation and thereafter at one hour intervals until the intraocular pressure returned to the initial value, and the duration of the effect was examined.

C[C@@H](N)c1ccc(C(=O)Nc2ccnc3[nH]ccc23)cc1.Cl.Cl.O [Compound D, (R)-(+)-N-(1H-pyrrolo[2,3-b]pyridin-4-yl)-4-(1-aminoethyl)benzamide 2HCl 1H2O]
character (onset, duration) of intraocular pressure lowering effect: marked and long lasting intraocular pressure lowering effect
